Like-named read-outs stand apart in the source and are kept apart here.
Assays:
SOS1 = target: T1, SOS1 (Homo sapiens, UniProt Q07889); experiment: SOS-catalyzed nucleotide exchange assay (HTRF, SOS1-mediated GTP loading of KRAS G12D); type: biochemical; details: GST-KRAS G12D, HIS-SOS1cat, EDA-GTP-DY-647P1; compound 128 pM to 10 µM; read-out: SOS-catalyzed nucleotide exchange assay (IC50 range, Grade)
T1 construct: adding equal amounts of HIS-SOS1cat (160 nM; Cytoskeleton, US); His; purchased Cytoskeleton, US
T1 sequence (Q07889 564-1049 limits assumed): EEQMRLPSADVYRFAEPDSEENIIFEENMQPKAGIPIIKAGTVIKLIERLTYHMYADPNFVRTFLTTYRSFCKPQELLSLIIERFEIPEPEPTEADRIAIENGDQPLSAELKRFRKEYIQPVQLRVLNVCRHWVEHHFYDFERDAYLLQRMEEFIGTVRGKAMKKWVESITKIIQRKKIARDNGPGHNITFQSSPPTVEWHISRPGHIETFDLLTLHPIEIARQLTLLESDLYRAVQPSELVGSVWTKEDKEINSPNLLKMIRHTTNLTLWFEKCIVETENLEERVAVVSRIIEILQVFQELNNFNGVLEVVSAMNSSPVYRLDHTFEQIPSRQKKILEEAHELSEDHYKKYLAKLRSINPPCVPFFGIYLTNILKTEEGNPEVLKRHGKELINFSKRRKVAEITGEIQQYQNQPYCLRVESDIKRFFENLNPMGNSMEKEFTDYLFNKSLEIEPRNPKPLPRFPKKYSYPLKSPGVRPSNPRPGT
Method in brief: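 SOS1cat (HIS-tagged) preincubated 10 min at room temperature with compound (128 pM-10 µM), then GST-KRAS G12D with anti-GST terbium added; GTP loading tracked as HTRF with a DY-647P1 GTP analogue after 30 min, buffer HEPES pH 7.4. GEF-free wells for normalization; IC50 derived.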

KRAS^G12C::SOS1 = target: T2, KRAS^G12C::SOS1 (Homo sapiens, UniProt Q07889); experiment: KRAS G12C::SOS1 protein-protein interaction (PPI) inhibition assay (HTRF binding kit)
T2 sequence (Q07889 1-1333): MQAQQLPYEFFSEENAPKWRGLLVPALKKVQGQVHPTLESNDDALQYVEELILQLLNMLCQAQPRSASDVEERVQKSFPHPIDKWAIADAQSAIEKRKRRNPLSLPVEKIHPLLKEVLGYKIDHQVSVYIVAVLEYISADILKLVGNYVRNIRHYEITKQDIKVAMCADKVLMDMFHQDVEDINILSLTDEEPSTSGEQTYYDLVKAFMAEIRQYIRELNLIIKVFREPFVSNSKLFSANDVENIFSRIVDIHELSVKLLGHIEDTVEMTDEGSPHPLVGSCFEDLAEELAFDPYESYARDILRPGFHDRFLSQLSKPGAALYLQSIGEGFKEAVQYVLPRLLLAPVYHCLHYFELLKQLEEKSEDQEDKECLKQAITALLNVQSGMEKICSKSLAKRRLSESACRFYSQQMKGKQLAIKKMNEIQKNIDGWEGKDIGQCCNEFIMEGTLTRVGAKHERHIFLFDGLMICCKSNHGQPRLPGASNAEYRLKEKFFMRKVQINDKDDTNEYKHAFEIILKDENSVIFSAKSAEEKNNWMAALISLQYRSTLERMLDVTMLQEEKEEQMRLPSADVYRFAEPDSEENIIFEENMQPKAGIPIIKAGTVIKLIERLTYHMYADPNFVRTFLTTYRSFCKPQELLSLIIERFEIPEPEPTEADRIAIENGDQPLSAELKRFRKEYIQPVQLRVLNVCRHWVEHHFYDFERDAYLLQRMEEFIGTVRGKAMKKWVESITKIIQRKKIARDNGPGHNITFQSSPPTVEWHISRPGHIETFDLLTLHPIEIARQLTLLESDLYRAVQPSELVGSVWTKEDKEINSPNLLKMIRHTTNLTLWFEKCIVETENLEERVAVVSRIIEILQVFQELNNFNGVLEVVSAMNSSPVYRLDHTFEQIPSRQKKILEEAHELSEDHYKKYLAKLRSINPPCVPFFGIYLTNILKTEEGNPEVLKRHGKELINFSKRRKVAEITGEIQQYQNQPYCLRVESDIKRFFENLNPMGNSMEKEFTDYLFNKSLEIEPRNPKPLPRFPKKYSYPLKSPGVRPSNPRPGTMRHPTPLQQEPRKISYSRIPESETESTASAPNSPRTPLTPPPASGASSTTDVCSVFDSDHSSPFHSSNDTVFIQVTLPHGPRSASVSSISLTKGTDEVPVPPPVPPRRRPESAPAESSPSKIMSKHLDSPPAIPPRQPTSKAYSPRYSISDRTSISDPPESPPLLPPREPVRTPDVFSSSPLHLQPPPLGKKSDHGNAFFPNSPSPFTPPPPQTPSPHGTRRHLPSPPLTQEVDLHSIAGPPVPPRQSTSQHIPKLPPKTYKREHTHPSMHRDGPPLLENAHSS

Cc1cc(C(=O)N[C@H](C)c2cc(N)cc(C(F)F)c2)nn(-c2cncc(-c3cnnn3C)c2)c1=O [Example B07, N-[(1R)-1-[3-amino-5-(difluoromethyl)phenyl]ethyl]-5-methyl-1-[5-(3-methyltriazol-4-yl)-3-pyridyl]-6-oxo-pyridizine-3-carboxamide] was tested, and the IC50 (SOS1) was < 1000 nM and the IC50 (KRAS^G12C::SOS1) was < 1000 nM.
With C[C@@H](NC(=O)c1ccc(=O)n(-c2cccc(-c3ccnn3C(F)F)c2)n1)c1cccc(C(F)(F)CO)c1F [Example 150, N-[(1R)-1-[3-(1,1-difluoro-2-hydroxy-ethyl)-2-fluoro-phenyl]ethyl]-1-[3-[2-(difluoromethyl)pyrazol-3-yl]phenyl]-6-oxo-pyridazine-3-carboxamide] the IC50 (SOS1) was < 1000 nM and the IC50 (KRAS^G12C::SOS1) was < 1000 nM.
With C[C@@H](NC(=O)c1ccc(=O)n(-c2cncc(-c3cnnn3C)c2)n1)c1cccc(C(F)(F)CF)c1F [Example B09, (R)-N-(1-(2-fluoro-3-(1,1,2-trifluoroethyl)phenyl)ethyl)-1-(5-(1-methyl-1H-1,2,3-triazol-5-yl)pyridin-3-yl)-6-oxo-1,6-dihydropyridazine-3-carboxamide] the IC50 (SOS1) was < 1000 nM and the IC50 (KRAS^G12C::SOS1) was < 1000 nM.
C[C@@H](NC(=O)c1ccc(=O)n(-c2cccc(-c3ccnn3C(F)F)c2)n1)c1cc(N)cc(C(F)(F)F)c1 [Example 149, N-[(1R)-1-[3-amino-5-(trifluoromethyl)phenyl]ethyl]-1-[3-[2-(difluoromethyl)pyrazol-3-yl]phenyl]-6-oxo-pyridazine-3-carboxamide] was tested, and the IC50 (SOS1) was < 1000 nM and the IC50 (KRAS^G12C::SOS1) was < 1000 nM.
C[C@@H](NC(=O)c1ccc(=O)n(-c2cncc(-c3cnnn3C)c2)c1)c1cccc(C(F)(F)F)c1F [Example B08, N-[(1R)-1-[2-fluoro-3-(trifluoromethyl)phenyl]ethyl]-1-[5-(3-methyltriazol-4-yl)-3-pyridyl]-6-oxo-pyridine-3-carboxamide] was tested, and the IC50 (SOS1) was < 1000 nM and the IC50 (KRAS^G12C::SOS1) was < 1000 nM.
In the case of C[C@@H](NC(=O)c1ccc(=O)n(-c2ccccc2OC(F)F)n1)c1cccc(C(F)(F)CO)c1F [Example 143, N-[(1R)-1-[3-(1,1-difluoro-2-hydroxy-ethyl)-2-fluoro-phenyl]ethyl]-1-[2-(difluoromethoxy)phenyl]-6-oxo-pyridazine-3-carboxamide], the IC50 (SOS1) is reported as < 1000 nM and the IC50 (KRAS^G12C::SOS1) is reported as < 1000 nM.
With “N-[(1R)-1-[3-amino-5-(trifluoromethyl)phenyl]ethyl]-6-oxo-1-[4-(trifluoromethoxy)phenyl]pyridazine-3-carboxamide [Example 154]” the IC50 (SOS1) was 1000 to 10000 nM and the IC50 (KRAS^G12C::SOS1; read-out: KRAS ^G12C::SOS1 PPI assay (IC50 range, Grade), maximum concentration 3 µM, 8 concentrations, three replicates) was < 1000 nM.
C[C@@H](NC(=O)c1ccc(=O)n(-c2cccnc2F)n1)c1cccc(C(F)(F)CO)c1F [Example 141, N-[(1R)-1-[3-(1,1-difluoro-2-hydroxy-ethyl)-2-fluorophenyl]ethyl]-1-(2-fluoro-3-pyridyl)-6-oxo-pyridazine-3-carboxamide] was tested, and the IC50 (SOS1) was < 1000 nM and the IC50 (KRAS^G12C::SOS1) was < 1000 nM.
In the case of [2H]C([2H])([2H])n1nncc1-c1cncc(-n2nc(C(=O)N[C@H](C)c3cccc(C(F)(F)F)c3F)ccc2=O)c1 [Example B11, N-[(1R)-1-[2-fluoro-3-(trifluoromethyl)phenyl]ethyl]-6-oxo-1-[5-[3-(trideuteriomethyl)triazol-4-yl]-3-pyridyl]pyridazine-3-carboxamide], the IC50 (SOS1) is reported as < 1000 nM and the IC50 (KRAS^G12C::SOS1) is reported as < 1000 nM.
For Cc1cc(C(=O)N[C@H](C)c2cccc(C(F)(F)F)c2F)cn(-c2cncc(-c3cnnn3C)c2)c1=O [Example B10, (R)-N-(1-(2-fluoro-3-(trifluoromethyl)phenyl)ethyl)-3-methyl-5'-(1-methyl-1H-1,2,3-triazol-5-yl)-2-oxo-2H-[1,3'-bipyridine]-5-carboxamide], the IC50 (SOS1) was < 1000 nM and the IC50 (KRAS^G12C::SOS1) was < 1000 nM.
For C[C@@H](NC(=O)c1ccc(=O)n(-c2ccc(F)c(-c3cnnn3C)c2)n1)c1cccc(C(F)(F)F)c1F [Example B06, N-[(R)-1-[2-fluoro-3-(trifluoromethyl)phenyl]ethyl]-1-[4-fluoro-3-(1-methyl-1H-1,2,3-triazol-5-yl)phenyl]-6-oxo-1,6-dihydro-3-pyridazinecarboxamide], the IC50 (SOS1) was < 1000 nM and the IC50 (KRAS^G12C::SOS1) was < 1000 nM.
For C[C@@H](NC(=O)c1ccc(=O)n(-c2cncc(-c3cnnn3C)c2)n1)c1cccc(C(F)F)c1F [Example B02, N-[(1R)-1-[3-(difluoromethyl)-2-fluoro-phenyl]ethyl]-1-[5-(3-methyltriazol-4-yl)-3-pyridyl]-6-oxo-pyridazine-3-carboxamide], the IC50 (SOS1) was < 1000 nM and the IC50 (KRAS^G12C::SOS1) was < 1000 nM.
With COc1ccc(-n2nc(C(=O)N[C@H](C)c3cc(N)cc(C(F)(F)F)c3)ccc2=O)c(OC)c1 [Example 153, N-[(1R)-1-[3-amino-5-(trifluoromethyl)phenyl]ethyl]-1-(2,4-dimethoxyphenyl)-6-oxo-pyridazine-3-carboxamide] the IC50 (SOS1) was < 1000 nM and the IC50 (KRAS^G12C::SOS1) was < 1000 nM.
With C[C@@H](NC(=O)c1ccc(=O)n(-c2ccccc2F)n1)c1cccc(I)c1F [Example 144, N-[(1R)-1-(2-fluoro-3-iodo-phenyl)ethyl]-1-(2-fluorophenyl)-6-oxo-pyridazine-3-carboxamide] the IC50 (SOS1) was 1000 to 10000 nM and the IC50 (KRAS^G12C::SOS1) was < 1000 nM.
C[C@@H](NC(=O)c1ccc(=O)n(-c2cccc(CO)c2)c1)c1cc(N)cc(C(F)(F)F)c1 [Example 71, N-[(1R)-1-[3-amino-5-(trifluoromethyl)phenyl]ethyl]-1-[3-(hydroxymethyl)phenyl]-6-oxo-1,6-dihydropyridine-3-carboxamide] was tested, and the IC50 (SOS1) was < 1000 nM.
C[C@@H](NC(=O)c1ccc(=O)n(-c2ccccc2)n1)c1cccc(Cl)c1 [Example 1, N-[(1R)-1-(3-chlorophenyl)ethyl]-6-oxo-1-phenyl-pyridazine-3-carboxamide] gave an IC50 (SOS1) of 1000 to 10000 nM.
C[C@@H](NC(=O)c1ccc(=O)n(C2=CCN(S(C)(=O)=O)CC2)c1)c1cc(N)cc(C(F)(F)F)c1 [Example 74, N-[(1R)-1-[3-amino-5-(trifluoromethyl)phenyl]ethyl]-1'-methanesulfonyl-6-oxo-2',3'-dihydro-1'H,6H,6'H-[1,4'-bipyridine]-3-carboxamide] was tested, and the IC50 (SOS1) was < 1000 nM.
COc1ccc(-n2nc(C(=O)N[C@H](C)c3cc(N)cc(C(F)(F)F)c3)ccc2=O)cc1OC [Example 36, N-[(1R)-1-[3-amino-5-(trifluoromethyl)phenyl]ethyl]-1-(3,4-dimethoxyphenyl)-6-oxo-pyridazine-3-carboxamide] was tested, and the IC50 (SOS1) was < 1000 nM.
In the case of C[C@@H](NC(=O)c1ccc(=O)n(-c2ccccc2)c1)c1cc(N)cc(C(F)(F)F)c1 [Example 62, N-[(1R)-1-[3-amino-5-(trifluoromethyl)phenyl]ethyl]-6-oxo-1-phenylpyridine-3-carboxamide], the IC50 (SOS1) is reported as < 1000 nM.
For C[C@@H](NC(=O)c1ccc(=O)n(-c2ccccc2)n1)c1cccc(C(F)(F)CO)c1F [Example 59, N-[(1R)-1-[3-(1,1-difluoro-2-hydroxy-ethyl)-2-fluoro-phenyl]ethyl]-6-oxo-1-phenyl-pyridazine-3-carboxamide], the IC50 (SOS1) was < 1000 nM.
